# Reference: PubChem BioAssay AID1918943 (Molecular Pharmacology Branch, DTP, NCI, 2023)
# Where “and” joins values, the source holds several entries; their conditions need not be identical. Equal values may be shown once.
# Tested on: 855422-203-R-J1-PDC complex spheroid viability
# Assay: Anticancer human tumor 855422-203-R-J1-PDC patient-derived bladder carcinoma cell line growth inhibition
# Conditions: for viability, T/C: stronger effect = lower value
# Excerpt: Multicellular complex tumor spheroid response to LSD1 Inhibitor Iadademstat in combination with a variety of drugs and investigational agents in selected tumor cell lines
# The current study was undertaken to assess response to LSD1 inhibitors in combination with standard-of-care drugs and investigational agents in solid tumor complex spheroid models as well as in the K-562 leukemia. Complex spheroids include a stromal component modeled by human endothelial cells (HUVEC) and fibroblasts modeled by human mesenchymal stem cells (MSCs). The concentration ranges selected for each drug and investigational agent were based upon clinically achievable concentrations if the clinical Cmax of the agent was known.
# Compounds. The drugs and investigational agents used in this study are listed on Table 1. All of the agents used, including staurosporine (NSC755774) and gemcitabine (NSC613327), were obtained from the Developmental Therapeutics Program, NCI. FDA-approved anticancer drugs are available from the NCI at http://dtp.nci.nih.gov/branches/dscb/oncology_drugset_explanation.html. Drugs and investigational agents were >95% pure by proton nuclear magnetic resonance (NMR) and liquid chromatography/mass spectrometry (LC/MS). Stock solutions were prepared at 400x in DMSO, stored at -70 degrees C, and diluted in fresh medium prior to their use. The final concentration of DMSO in cell culture wells never exceeded 0.25% (v/v). The FDA-approved anticancer drug set is available from the Developmental Therapeutics Program at https://dtp.cancer.gov/organization/dscb/obtaining/available_plates.htm. All drugs and investigational agents were tested over a range starting from a high concentration at or near the clinical Cmax and decreasing in half-log increments. If the clinical Cmax for an agent had not been determined, the highest concentration tested was 10 microM.
# Cell Lines. The patient-derived cancer cell (PDC) lines: 292921-168-R-J2-PDC, K24384-001-R-PDC, and 521955-158-R2-J5-PDC pancreatic carcinomas, 556581-035-R-J1 ovarian carcinoma, 324938-238-R-J1-PDC, 855422-203-R-J1-PDC and 883617-216-R-J1-PDC urothelial bladder carcinomas, 743489-274-T-PDC renal cell carcinoma, 138582-R-J1 Merkel cell tumor, K60290-347-R-J1 and K57222-313-R-J1-PDC glioblastomas, 653999-131-R-J2-PDC, LG0703-F948-PDC, and 349418-098-R-PDC non-small cell lung carcinomas, 885512-296-R-J2-PDC, 171881-019-R-J1-PDC breast carcinomas and 186277-243-T-J2-PDC and 233499-124-R-J2-PDC colon carcinomas were obtained from the NCI Patient-Derived Models Repository (PDMR, https://pdmr.cancer.gov). The established cell lines NCI/ADR-RES (RRID:CVCL_14520 and OVCAR-5 (RRID:CVCL_1628) ovarian carcinomas, 786-O (RRID:CVCL_1051) and A498 (RRID:CVCL_A498) renal cell carcinoma, NCI-H211 (ATCC, cat. CRL-5824; RRID:CVCL_1529), NCI-H196 (ATCC, cat. CRL-5823, RRID:CVCL_1509), SW 1271 (ATCC, cat. CRL-2177, RRID:CVCL_1716) and NCI-H1876 (ATCC, cat. CRL-5902, RRID:CVCL_1503) small cell lung carcinomas, MDA-MB-231 (RRID:CVCL_0062) and MDA-MB-468 (RRID:CVCL_0419)breast carcinomas (10-12). Pooled donor human umbilical vein endothelial cells (HUVEC, Lonza, cat. CC-2519) and human mesenchymal stem cells (hMSC, Lonza, cat. PT-2501) were purchased from Lonza (Walkersville, MD).
# Cell Culture. All cells were maintained in an incubator at 37 degrees C and 5% CO2 with 95% humidity. The PDC lines were cultured according to standard operating procedures established by the NCI PDMR (https://pdmr.cancer.gov). Briefly all PDCs were thawed and cultured in Matrigel-coated flasks prepared with a working solution of 1X Ham's F-12 nutrient mix, without supplementation (Invitrogen, Waltham, MA, cat. 11765054), 100 U/mL penicillin-streptomycin (Invitrogen, cat. 15140122), and 2.5% Matrigel (Corning Inc., Corning, NY, cat. 354248) for the first three passages. […]
# 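Also: drug exposure lasted 7 days starting on day 3 after seeding.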
# 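For viability, T/C in this document: luminescence viability as percent of DMSO vehicle wells = 100%.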
smiles,measurement,setting,value
Nc1ccn(C2OC(CO)C(O)C2(F)F)c(=O)n1 (configuration not stated) + NC1CCC(NC2CC2c2ccccc2)CC1,IC50,"curve of first compound, second compound 0.1 µM",4.38 nM
same,IC50,"curve of first compound, second compound 0.316 µM",5.79 nM
same,IC50,"curve of first compound, second compound 1 µM",6.14 nM
same,IC50,"curve of first compound, second compound 3.16 µM",6.83 nM
same,IC50,"curve of first compound, second compound 10 µM",8.48 nM
same,"viability, T/C","second compound 0.1 µM, first compound 0.000949 µM",90.5%
same,"viability, T/C","second compound 0.1 µM, first compound 0.003 µM",53.3%
same,"viability, T/C","second compound 0.1 µM, first compound 0.00949 µM",39.5%
same,"viability, T/C","second compound 0.1 µM, first compound 0.03 µM",34.7%
same,"viability, T/C","second compound 0.1 µM, first compound 0.0949 µM",28.7%
same,"viability, T/C","second compound 0.1 µM, first compound 0.3 µM",24.4%
same,"viability, T/C","second compound 0.316 µM, first compound 0.000949 µM",86.6%
same,"viability, T/C","second compound 0.316 µM, first compound 0.003 µM",58.9%
same,"viability, T/C","second compound 0.316 µM, first compound 0.00949 µM",41.3%
same,"viability, T/C","second compound 0.316 µM, first compound 0.03 µM",34.8%
same,"viability, T/C","second compound 0.316 µM, first compound 0.0949 µM",30%
same,"viability, T/C","second compound 0.316 µM, first compound 0.3 µM",20.6%
same,"viability, T/C","second compound 1 µM, first compound 0.000949 µM",88.5%
same,"viability, T/C","second compound 1 µM, first compound 0.003 µM",57.2%
same,"viability, T/C","second compound 1 µM, first compound 0.00949 µM",45.4%
same,"viability, T/C","second compound 1 µM, first compound 0.03 µM",37.9%
same,"viability, T/C","second compound 1 µM, first compound 0.0949 µM",32.5%
same,"viability, T/C","second compound 1 µM, first compound 0.3 µM",28.6%
same,"viability, T/C","second compound 3.16 µM, first compound 0.000949 µM",79.2%
same,"viability, T/C","second compound 3.16 µM, first compound 0.003 µM",63.1%
same,"viability, T/C","second compound 3.16 µM, first compound 0.00949 µM",43.5%
same,"viability, T/C","second compound 3.16 µM, first compound 0.03 µM",35.1%
same,"viability, T/C","second compound 3.16 µM, first compound 0.0949 µM",26.8%
same,"viability, T/C","second compound 3.16 µM, first compound 0.3 µM",24.7%
same,"viability, T/C","second compound 10 µM, first compound 0.000949 µM",82.1%
same,"viability, T/C","second compound 10 µM, first compound 0.003 µM",55.9%
same,"viability, T/C","second compound 10 µM, first compound 0.00949 µM",52%
same,"viability, T/C","second compound 10 µM, first compound 0.03 µM",39.9%
same,"viability, T/C","second compound 10 µM, first compound 0.0949 µM",27.6%
same,"viability, T/C","second compound 10 µM, first compound 0.3 µM",22.3%
Cn1ncnc1C1c2n[nH]c(=O)c3cc(F)cc(c23)NC1c1ccc(F)cc1 (configuration not stated),"viability, T/C",compound 0.000316 µM,114% and 96.5%
same,"viability, T/C",compound 0.001 µM,89% and 83.3%
same,"viability, T/C",compound 0.00316 µM,95.8% and 84.2%
same,"viability, T/C",compound 0.01 µM,95.8% and 73.8%
same,"viability, T/C",compound 0.0316 µM,89.2% and 86.2%
same,"viability, T/C",compound 0.1 µM,81.8% and 86.8%
same,IC50,curve of compound,> 100 nM
